In US9488914B2, “Fluorine-containing sulfonic acid salt, fluorine-containing sulfonic acid salt resin, resist composition, and pattern forming method using same” (Central Glass Company, Limited, priority 2012, dated 2016):

Test: Solubility of polymerizable fluorine-containing sulfonic acid onium salts in PGMEA
Details: amount (g) of polymerizable monomer dissolved in 100 g of PGMEA

| Compound | Solubility |
| --- | --- |
| C=C(COCC(F)(F)S(=O)(=O)O)C(=O)OC1CC(C(O)(C(F)(F)F)C(F)(F)F)CC(C(O)(C(F)(F)F)C(F)(F)F)C1 (stereo not shown) [PAG-3, Diphenyl-p-tolylsulfonium 2-[2-(3,5-bis(hexafluoro-2-hydroxypropan-2-yl)cyclohexyloxycarbonyl)-2-methyleneethoxy]-1,1-difluoroethanesulfonate] | 55 g/100 g |
| C=C(COCCC(F)(F)C(F)(F)S(=O)(=O)[O-])C(=O)OC1CC2CC1CC2CC(OC(C)=O)(C(F)(F)F)C(F)(F)F.c1ccc(-[s+]2c3ccccc3c3ccccc32)cc1 (stereo not shown) [PAG-2, Phenyldibenzothiophenium 4-[2-(3,3,3-trifluoro-2-acetyloxy-2-(trifluoromethyl)propyl)bicyclo[2.2.1]hepta-2-yloxycarbonyl-2-methyleneethoxy]-1,1,2,2-tetrafluorobutanesulfonate] | 50 g/100 g |
| C=C(COC(CCCC)C(F)(F)S(=O)(=O)[O-])C(=O)Oc1ccc(C(O)(C(F)(F)F)C(F)(F)F)cc1.Cc1ccc([S+](c2ccc(C)cc2)c2ccc(C)cc2)cc1 (stereo not shown) [PAG-11, Tri-p-tolylsulfonium 2-[4-(2,2,2-trifluoro-1-hydroxy-1-(trifluoromethyl)ethylphenoxycarbonyl)-2-methylene-ethoxy]-1,1-difluorohexanesulfonate] | 45 g/100 g |
| C=C(COCC(F)(F)S(=O)(=O)O)C(=O)OC1CCOC1=O (stereo not shown) [PAG-1, Triphenylsulfonium 2-[2-(2-oxotetrahydrofuran-3-yloxycarbonyl)-2-methyleneethoxy]-1,1-difluoroethanesulfonate] | 38 g/100 g |
| C=C(COCCCC(F)(F)S(=O)(=O)O)C(=O)OC1CC2CC1C1COC(=O)C21 (stereo not shown) [PAG-15, [(4-trifluoromethyl)phenyl]diphenylsulfonium 4-(4-oxa-tricyclo[5.2.1.0(2,6)]decan-3-on-8-yloxycarbonyl-2-methylene-ethoxy)-1,1-difluorobutanesulfonate] | 42 g/100 g |
| C=C(COCCC(F)(F)C(F)(F)S(=O)(=O)O)C(=O)Oc1ccc2sc(=O)oc2c1 [PAG-8] | 42 g/100 g |
| Triphenylsulfonium 2-[2-(1,1,1-trifluoro-2-hydroxy-2-(trifluoromethyl)penta-5-yloxycarbonyl)-2-methyleneethoxy]-1,1-difluoroethanesulfonate [PAG-13] | 47 g/100 g |
